# Experimental data as given in PMC6151740, “Pharmacokinetics, Tissue Distribution, and Elimination of Three Active Alkaloids in Rats after Oral Administration of the Effective Fraction of Alkaloids from Ramulus Mori, an Innovative Hypoglycemic Agent” (Molecules : A Journal of Synthetic Chemistry and Natural …, 2017).
# Key:
# [1] = In vitro incubation of SZ–A with rat intestinal homogenate; format: in vitro ADME; settings: SZ–A 10.87 μg/mL, with/without NADPH generation, 37 °C, 120 min
# Protocol: (§1) Pooled rat intestinal homogenate from six males was prepared using a tissue homogenizer with ice cold normal saline solution at a proportion of 1:3 (w/v). SZ–A was incubated with rat intestinal homogenate (5 mg protein/mL) with/without a NADPH-generating system (0.011 M β-NADP, 0.1 M glucose 6-phosphate, 10 U/mL glucose-6-phosphate dehydrogenase) in a 37 °C water bath for 120 min. Meanwhile, caecal content was collected and mixed with anaerobic medium (1:30, w/v) to prepare the cultures under nitrogen atmosphere at 37 °C for 120 min. SZ–A and rat caecal microbiota cultures were incubated at a total volume of 200 μL with the boiled samples as the negative control, concomitantly. The incubation was stopped at 2 h by adding two volumes of methanol–acetonitrile (1:3, v/v). Triplicate supernatants were taken by centrifugation at 18,880× g for 5 min and stored at −20 °C until LC-MS/MS analysis. The results were expressed as the percentage of the concentration at 0 min.
# [2] = system: rat caecal microbiota cultures; assay: In vitro incubation of SZ–A with rat caecal microbiota cultures; format: in vitro ADME; settings: 2 h
# Protocol: as §1
# [3] = In situ single-pass intestinal perfusion (rat jejunum, mesenteric vein blood); format: in vivo; settings: by 60 min, n = 5
# Protocol: The surgical procedures were similar to those described elsewhere. The Hank’s balanced salt solution (HBSS, pH = 7.4) with SZ–A (21.73 μg/mL) or DNJ (50 μM) at 37 °C was infused into the jejunum at 0.3 mL/min individually. Phenol Red (50 μM) was added to serve as a nonabsorbable marker for measuring water flux. The blood from mesenteric vein and perfusate were collected at five-minute intervals. The plasma was separated by centrifugation and perfusate were immediately frozen at −20 °C for LC-MS/MS analysis. Atenolol and propranolol, the low- and high-permeability markers, were used to check the integrity of the intestinal membrane.
# [4] = DNJ 110 mg/kg ingested; cited from earlier work
# [5] = 4.35 μg/mL SZ–A (10 μM DNJ, 1.9 μM FGM, 1.6 μM DAB)
# [6] = 10.87 μg/mL SZ–A (25 μM DNJ, 4.7 μM FGM, 3.9 μM DAB)
structure (smiles),measurement,setting,value
"OC[C@H]1NC[C@@H](O)[C@@H]1O [DAB, 1,4-dideoxy-1,4-imino-D-arabinitol]",amount of alkaloid after incubation in rat intestinal homogenate,[1],not changed significantly
same,percentage of initial amount after incubation with rat gut microbiota cultures,[2]; [5],182.2%
same,percentage of initial amount after incubation with rat gut microbiota cultures,[2]; [6],159.3%
"OC[C@H]1NC[C@H](O)[C@@H](O)[C@@H]1O [DNJ, 1-deoxynojirimycin]",cumulative amount per unit of area absorbed into the mesenteric venous blood,[3]; perfusion of SZ–A 21.73 μg/mL (containing 50 μM DNJ),2136.1 pmol/cm^2
same,cumulative amount per unit of area absorbed into the mesenteric venous blood,[3]; perfusion of purified DNJ 50 μM,1787.1 pmol/cm^2
same,amount of alkaloid after incubation in rat intestinal homogenate,[1],not changed significantly
same,percentage of initial amount after incubation with rat gut microbiota cultures,[2]; [5],110.6%
same,percentage of initial amount after incubation with rat gut microbiota cultures,[2]; [6],115.5%
same,fraction of ingested DNJ incorporated into the rat plasma,[4],1%
"OC[C@H]1NCC[C@@H](O)[C@@H]1O [FGM, fagomine]",amount of alkaloid after incubation in rat intestinal homogenate,[1],not changed significantly
same,percentage of initial amount after incubation with rat gut microbiota cultures,[2]; [5],152.8%
same,percentage of initial amount after incubation with rat gut microbiota cultures,[2]; [6],172.0%
